Values belong to the compound of their own block, whether it stands above or below them. Activity calls are given as the source filed them. No cut-off for these calls is given here.
What was measured:
[1] = Drug uptake in mouse blood administered as rectal dose and measured after 1 hrs; type: ADME, tissue-based; settings: route rec, read-out: Ct
[2] = Toxicity in rectal dosed mouse assessed as body weight loss administered for 8 days; type: organism-based; settings: in vivo, other, 192 h, route rec, time 8 day
[3] = Elimination half-life in rat; type: ADME; settings: in vivo, read-out: beta t1/2
[4] = Prodrug conversion in human plasma assessed as 7(R)-(2-((R,E)-4,4-difluoro-3-hydroxy-4-phenyl)but-1-en-1-yl)-5-oxopyrrolidin-1-yl)heptanoic acid release by measuring half-life; type: ADME, cell-free
[5] = Prodrug conversion in mouse gut assessed as 7(R)-(2-((R,E)-4,4-difluoro-3-hydroxy-4-phenyl)but-1-en-1-yl)-5-oxopyrrolidin-1-yl)heptanoic acid formation by measuring half-life at 100 uM; type: ADME, tissue-based
[6] = Prodrug conversion in mouse blood assessed as 7(R)-(2-((R,E)-4,4-difluoro-3-hydroxy-4-phenyl)but-1-en-1-yl)-5-oxopyrrolidin-1-yl)heptanoic acid formation administered orally with 1 mg/kg equivalent dose of active drug and measured after 0.5 hrs by LC/MS/MS analysis; type: ADME, organism-based; settings: in vivo, po
[7] = Prodrug conversion in mouse blood assessed as 7(R)-(2-((R,E)-4,4-difluoro-3-hydroxy-4-phenyl)but-1-en-1-yl)-5-oxopyrrolidin-1-yl)heptanoic acid formation administered orally with 1 mg/kg equivalent dose of active drug and measured for 1 to 4 hrs by LC/MS/MS analysis; type: ADME, organism-based; settings: in vivo, po, time 1-4 hrs
[8] = Prodrug conversion in mouse blood assessed as concentration of 7(R)-(2-((R,E)-4,4-difluoro-3-hydroxy-4-phenyl)but-1-en-1-yl)-5-oxopyrrolidin-1-yl)heptanoic acid administered as rectal dose and measured after 1 hr; type: ADME, tissue-based; settings: other, route rec
Mus musculus [9] = test: Anti-inflammatory activity in rectal dosed DSS-induced mouse model assessed as reduction in inflammatory cell infiltration treated as prodrug for 8 days; type: functional, organism-based; settings: route rec, time 8.0 day
[10] = Prodrug conversion in blood of DSS-induced colitis mouse model assessed as 7(R)-(2-((R,E)-4,4-difluoro-3-hydroxy-4-phenyl)but-1-en-1-yl)-5-oxopyrrolidin-1-yl)heptanoic acid formation administered as rectal dose and measured after 4 days by LC/MS/MS analysis; type: ADME, tissue-based; settings: other, 96 h, route rec, time 4 day
[11] = Stability of compound in PBS buffer at pH 7.2 at 200 ug/mL measured over 170 hrs; type: physicochemical; settings: pH 7.2, 170 h, at 200 µg/mL
[12] = Stability of compound in PBS buffer at pH 9 at 200 ug/mL measured over 170 hrs; type: physicochemical; settings: pH 9, 170 h, at 200 µg/mL
[13] = Prodrug release in PBS buffer at pH 2 assessed as release of 7(R)-(2-((R,E)-4,4-difluoro-3-hydroxy-4-phenyl)but-1-en-1-yl)-5-oxopyrrolidin-1-yl)heptanoic acid by measuring half-life; type: ADME
[14] = Prodrug conversion in mouse serum assessed as 7(R)-(2-((R,E)-4,4-difluoro-3-hydroxy-4-phenyl)but-1-en-1-yl)-5-oxopyrrolidin-1-yl)heptanoic acid release by measuring half-life; type: ADME, cell-free
[15] = Prodrug conversion in mouse colon assessed as 7(R)-(2-((R,E)-4,4-difluoro-3-hydroxy-4-phenyl)but-1-en-1-yl)-5-oxopyrrolidin-1-yl)heptanoic acid formation by measuring half-life; type: ADME, tissue-based; settings: in vivo
[16] = Prodrug conversion in mouse ileum assessed as 7(R)-(2-((R,E)-4,4-difluoro-3-hydroxy-4-phenyl)but-1-en-1-yl)-5-oxopyrrolidin-1-yl)heptanoic acid formation by measuring half-life; type: ADME, tissue-based; settings: in vivo
Mus musculus [17] = test: Anti-inflammatory activity in rectal dosed DSS-induced colitis mouse model assessed as change in disease activity index (DAI) treated as prodrug for 8 days; type: functional, organism-based; settings: route rec, time 8.0 day
Mus musculus [18] = test: Anti-inflammatory activity in rectal dosed DSS-induced colitis mouse model assessed as increase in colon length treated as prodrug for 8 days; type: functional, organism-based; settings: route rec, time 8.0 day
Mus musculus [19] = test: Anti-inflammatory activity in rectal dosed DSS-induced mouse model assessed as reduction in epithelial cell damage treated as prodrug for 8 days; type: functional, organism-based; settings: route rec, time 8.0 day
[20] = Prodrug conversion in blood of DSS-induced colitis mouse model assessed as 7(R)-(2-((R,E)-4,4-difluoro-3-hydroxy-4-phenyl)but-1-en-1-yl)-5-oxopyrrolidin-1-yl)heptanoic acid formation administered as rectal dose and measured after 7 days by LC/MS/MS analysis; type: ADME, tissue-based; settings: other, 168 h, route rec, time 7 day

SMILES: CCOC(=O)CCCCCCN1C(=O)CC[C@@H]1/C=C/[C@@H](OC(OP(=O)(O)O)c1ccccc1)C(F)(F)c1ccccc1 (stereo partly specified)
- t1/2 [4]: 45 h
- t1/2 [5]: 0.667 h

SMILES: O=C(O)CCCCCCN1C(=O)CC[C@@H]1/C=C/[C@@H](OC(OP(=O)(O)O)c1ccccc1)C(F)(F)c1ccccc1 (stereo partly specified)
- Drug metabolism [6]: metabolite_detected
- Drug metabolism [7]: metabolite_detected
- Drug metabolism [8]: 2.6 ng/mL

SMILES: CCOC(=O)CCCCCCN1C(=O)CC[C@@H]1/C=C/[C@@H](OC(C)OP(=O)(O)O)C(F)(F)c1ccccc1 (stereo partly specified)
- t1/2 [4]: 10.4 h
- t1/2 [5]: < 0.083 h

SMILES: O=C1CC[C@H](/C=C/[C@@H](O)C(F)(F)c2ccccc2)N1CCCCCCc1nnn[nH]1
- half-life [3]: > 24 h

SMILES: CCCC(O[C@H](/C=C/[C@H]1CCC(=O)N1CCCCCCC(=O)OCC)C(F)(F)c1ccccc1)OP(=O)(O)O (stereo partly specified)
- t1/2 [4]: 12.7 h
- t1/2 [5]: < 0.083 h

Now from value to compound, other results behind:

- concentration at 1 h [1]: 0.0358 µg/mL
- half-life [3]: < 1 h
SMILES: O=C(O)CCCCCCN1C(=O)CC[C@@H]1/C=C/[C@@H](O)C(F)(F)c1ccccc1
- Activity [2]: Non-toxic

- Drug metabolism [10]: 1.5 ng/mL
- Stability [11]: Stable
- Stability [12]: Stable
- t1/2 [13]: ~ 300 hr
- t1/2 [4]: 1.5 h
- t1/2 [14]: 3.3 h
- t1/2 [5]: < 0.083 h
- t1/2 [15]: 0.333 h
- t1/2 [16]: 9 min
- Drug metabolism [6]: metabolite_detected
- Drug metabolism [7]: metabolite_detected
- Drug metabolism [8]: 5.4 ng/mL
- Drug metabolism [20]: 1.5 ng/mL
SMILES: O=C(O)CCCCCCN1C(=O)CC[C@@H]1/C=C/[C@@H](OCOP(=O)(O)O)C(F)(F)c1ccccc1
- Activity (Mus musculus [9]): Active
- Activity [2]: Non-toxic
- Activity (Mus musculus [17]): Not active; Little Or No Change Observed
- Activity (Mus musculus [18]): Active
- Activity (Mus musculus [19]): Active

— ChEMBL document CHEMBL6109054, “Development of novel GI-centric prostaglandin E2 receptor type 4 (EP4) agonist prodrugs as treatment for ulcerative colitis and other intestinal inflammatory diseases” (Bioorg Med Chem Lett, 2025)
